Values of other authors, collected in patent publication US20240239832A1, “A PROCESS FOR THE PREPARATION OF N4-HYDROXYCYTIDINE AND ITS DERIVATIVES” (priority 2021, published 2024).

Assays:
[1] = system: Venezuelan equine encephalitis virus (VEEV) TC-83; conditions: read-out: EC50, reduction of viral titers of VEEV TC-83
[2] = system: remdesivir-resistant strains of the model CoV mouse hepatitis virus (MHV); conditions: infected DBT cells
[3] = system: acute respiratory syndrome coronavirus (SARS-CoV); conditions: read-out: IC50, inhibition of replication of SARS-CoV
[4] = system: Middle East respiratory syndrome coronavirus (MERS-CoV); conditions: read-out: IC50, inhibition of replication of MERS-CoV
SARS-CoV-2 = conditions: Vero cells; read-out: IC50, inhibition of replication of SARS-CoV-2

O=c1nc(NO)ccn1[C@@H]1O[C@H](CO)[C@@H](O)[C@H]1O [EIDD-1931, 1-(3,4-dihydroxy-5-(hydroxymethyl)tetrahydrofuran-2-yl)-4-(hydroxyamino)pyrimidin-2(1H)-one]
EC50 [1]: 426 nM | reduction of viral titers of remdesivir-resistant MHV [2]: reduces viral titers | IC50 [3]: 100 nM | IC50 [4]: 150 nM | IC50 (SARS-CoV-2): 300 nM
